# US20210017555A1, “METHOD FOR PRODUCING 4-AMINOCINNAMIC ACID, AND VECTOR AND HOST CELL USED IN SAME” (JAPAN SCIENCE AND TECHNOLOGY AGENCY, priority 2018, published 2021)
# Columns and labels:
# [1] = Search for carbon source for conversion of 4-nitrocinnamic acid to 4-aminocinnamic acid; assay type: cell-based, Escherichia coli; details: glycerol added at 10% (compared with glucose, fructose), 2 g/L 4-nitrocinnamic acid, pH 8, 37° C., 24 hours
# Protocol: The CamPAL-producing Escherichia coli strain described in Example 1 was first precultured for 16 hours in the same manner as in Example 2. 1 mL of this pre-cultured liquid was inoculated to 100 mL of TB medium containing 80 mg/L kanamycin sulfate, cultured at 30° C. for 4 hours with stirring at 120 rpm, and after the addition of 0.1 mM IPTG, cultured further for 16 hours. 2 g/L of 4-nitrocinnamic acid was added to the resultant culture solution, the pH was adjusted to 8 using 2N NaOH, and glucose, fructose, or glycerol was added as a carbon source at a final concentration of 10%. The cells were cultured at 37° C. for 24 hours with stirring at 300 rpm to cause reaction.
# During the reaction, the reaction solution was collected, and 4-aminocinnamic acid was quantified. Specifically, the reaction solution was transferred to a centrifuge tube, the supernatant was recovered by centrifugation, and the reaction product was quantified using the HPLC.
# [2] = Resting-cell reaction of PAL-producing E. coli, 4-nitrophenylalanine to 4-nitrocinnamic acid; assay type: cell-based, Escherichia coli; details: resting cells; for amount of 4-nitrocinnamic acid in the reaction supernatant: 24 hours, 28° C., pH 8.5, 20 mM 4-nitrophenylalanine, versus control Escherichia coli
# Protocol: The CamPAL-, LiePAL-, and RgPAL-producing Escherichia coli strains mentioned above were precultured using 3 mL of LB medium containing 40 mg/L kanamycin sulfate at 28° C. for 16 hours with stirring at 300 rpm. 1 mL of this pre-cultured liquid was inoculated to 100 mL of LB medium containing 40 mg/L of kanamycin sulfate, cultured at 30° C. for 4 hours with shaking at 120 rpm, and after the addition of 0.5 mM of IPTG, incubated further for 20 hours. The obtained bacterial cells were washed twice with a reaction buffer (100 mM Tris-HCl buffer, pH 8.5).
# The resting cells obtained were suspended in a reaction buffer and reacted at 28° C. with shaking at 300 rpm. 20 mM of 4-nitrophenylalanine was added to the medium every 24 hours while the reaction was continued. The reaction supernatant was periodically collected to quantify 4-nitrophenylalanine and 4-nitrocinnamic acid.
# The supernatant was transferred to a centrifuge tube, collected by centrifugation, and the reaction product was quantified using high performance liquid chromatography (HPLC).
# The same experiment was also performed using the host Escherichia coli as a control.
# [3] = Conversion of 4-nitrophenylalanine to 4-nitrocinnamic acid in 2 L jar fermenter; assay type: cell-based, Escherichia coli; details: 24 hours
# Protocol: The CamPAL-producing Escherichia coli strain described in Example 1 was used (cell mass: 20 g/L to 30 g/L) was used in a reaction of converting the substrate 4-nitrophenylalanine (group weight 21 g/L) to 4-nitrocinnamic acid, using a 2 L jar fermenter (BNR-C-2LS manufactured by Maruhishi Bio Engineering Co., Ltd.) as a reactor.
# Specifically, the CamPAL-producing Escherichia coli strain was precultured using 15 mL of LB medium with […] kanamycin sulfate at 28° C. for 16 hours with stirring at 300 rpm. 12 mL of this preculture liquid was inoculated to a 2 L jar fermenter containing 1.2 L TB medium with 80 mg/L kanamycin sulfate, and cultured at 30° C. for 4 hours with aeration of 3.5 L/min and stirring at 500 rpm. […] The mass of bacterial cells calculated from the value of OD600 was 30 g/L.
# After completion of the culture, 21 g/L of 4-nitrophenylalanine was added to the culture medium as the substrate, and the pH was adjusted to 8.5 using a 2N NaOH aqueous solution. […] The reaction solution was collected during the reaction, and 4-nitrophenylalanine and 4-nitrocinnamic acid were quantified as follows: the reaction solution was transferred to a centrifuge tube, the supernatant was recovered by centrifugation, and the reaction product was quantified using HPLC under the above conditions.
# [4] = Conversion of 4-nitrophenylalanine to 4-aminocinnamic acid in 1 L jar fermenter; assay type: cell-based, Escherichia coli; details: glycerol 10%, pH 8.5, 37° C., 36 hours, air flow 0.02 L/min
# Protocol: Conversion of 4-nitrophenylalanine to 4-aminocinnamic acid was carried out using a 1 L jar fermenter (manufactured by Biott: BMJ-01), in the presence of glycerol under the conditions mentioned above. Specifically, 5 mL of the preculture liquid of Example 2 was inoculated to a 1 L jar fermenter containing 0.5 L of TB medium supplemented with 80 mg/L kanamycin sulfate, and cultured at 30° C. for 4 hours, with aeration at 0.7 L/min and stirring at 645 rpm. 0.1 mM IPTG was then added, and the culturing was continued for another 20 hours.
# After the completion of the culturing, 7 g/L of 4-nitrophenylalanine and glycerol at a final concentration of 10% were added to the culture solution, and the pH was adjusted to 8.5 with 2N NaOH. The reaction was carried out at 37° C. for 36 hours with an air flow rate of 0.02 L/min and stirring at 645 rpm. When the pH dropped below 8.0, 2N NaOH was added. During the reaction, the reaction solution was sampled, and 4-nitrophenylalanine, 4-nitrocinnamic acid and 4-aminocinnamic acid were quantified.
# [5] = Deammonase activity of purified enzymes by absorptiometry; assay type: biochemical; details: purified recombinant enzyme 2 mg/mL, 50 mM Tris-HCl pH 8.6, 0.3 to 9.6 mM substrate, 380 nm, 10 minutes
# Protocol: • Apparatus: BECKMAN COULTER DU800 UV/Vis Spectrophotometer • Amount of enzyme: 2mg/mL • Buffer solution: 50mM Tris-HCl buffer (pH=8.6) • Concentration of substrate: 0.3mM to 9.6mM • Volume: 200μL • Measurement wavelength: From 4-nitrophenylalanine to 380 nm 4-nitrocinnamic acid: From phenylalanine to 305 nm cinnamic acid: • Measurement period: 10 minutes • Measurement temperature: 25° C.
# Each of the CamPAL-, LiePAL-, and RgPAL-producing Escherichia coli strains was inoculated to 5 mL of LB medium containing 30 mg/L kanamycin sulfate, and cultured at 28° C. for 16 hours (hereinafter also may be referred to as “preculture”). […]
# The enzyme activity was measured and quantified by measuring the absorbance of the reaction product at the absorption wavelength for 10 minutes using an absorptiometer.
# Specifically, regarding the deammonase activity for phenylalanine, 2 mg/mL of each of the above enzymes was added to 50 mM Tris-HCl buffer (pH=8.6) containing 0.3 to 9.6 mM phenylalanine to cause reaction, and the change in absorbance at a wavelength of 305 nm resulting from the formation of cinnamic acid was measured for 10 minutes. […]
# [6] = Conversion efficiency by CamPAL at different bacteria mass and substrate mass (resting cells); assay type: cell-based, Escherichia coli; details: cell mass 20 g/L or 30 g/L, substrate mass 21 g/L, 37° C., pH 8.5, 24 hours
# Protocol: The CamPAL-producing Escherichia coli strain described in Example 1 was precultured using 5 mL of LB medium containing 40 mg/L kanamycin sulfate at 28° C. for 16 hours with stirring at 300 rpm. 1 mL of this pre-cultured solution was inoculated to 100 mL of TB medium having the following composition after the addition of 80 mg/L kanamycin sulfate, and cultured at 30° C. for 4 hours with shaking at 120 rpm. After the addition of 0.1 mM of IPTG, the cells were further cultured for 20 hours, recovered from the culture solution by centrifugation, and stored at −80° C. The frozen cells thus obtained were weighed at 10 g/L, 20 g/L and 30 g/L, while the substrate 4-nitrophenylalanine was also weighed at 4.2 g/L, 21 g/L, and 42 g/L.
# Each mass of the cells and each mass of the substrate were suspended in a reaction buffer (100 mM Tris-HCl buffer, pH 8.5), and a resting microbial cell reaction was carried out at 37° C. with stirring at 300 rpm. After the reaction for 24 hours, the reaction solution was collected, and the amounts of 4-nitrophenylalanine and 4-nitrocinnamic acid were quantified. For the quantification of each reaction product, the supernatant of the obtained (bacterial cell) reaction solution was transferred to a centrifuge tube, collected by centrifugation, and the reaction product was quantified using the HPLC mentioned above.
Substance,amount of 4-aminocinnamic acid obtained [1],conversion of 4-nitrophenylalanine to 4-nitrocinnamic acid over time ([2]; 20 mM 4-nitrophenylalanine added every 24 hours),amount of 4-nitrocinnamic acid in the reaction supernatant [2],"4-nitrocinnamic acid converted from 21 g/L of 4-nitrophenylalanine ([3]; 2 L jar fermenter, cell mass 30 g/L, pH 8.5, 37° C., without aeration) [g/L]","4-nitrocinnamic acid converted from 21 g/L of 4-nitrophenylalanine ([3]; same reaction, aeration rate 0.04 L/min) [g/L]",4-aminocinnamic acid produced from 7 g/L of 4-nitrophenylalanine [4] [g/L],capacity to convert 4-nitrophenylalanine to 4-nitrocinnamic acid [5],conversion efficiency of 4-nitrophenylalanine to 4-nitrocinnamic acid (yield) [6] [%]
"CamPAL: phenylalanine ammonia-lyase derived from Camellia sinensis, SEQ ID NO: 1, expressed in E. coli BL21(DE3)",largest amount of 4-aminocinnamic acid was obtained when glycerol was added,proceeded continuously,significantly higher than that of the control Escherichia coli,18,12,4.7,have a capacity to covert 4-nitrophenylalanine to 4-nitrocinnamic acid,≥ 60
"LiePAL: phenylalanine ammonia-lyase derived from Lithospermum erythrorhizon, SEQ ID NO:3, expressed in E. coli",,,significantly higher than that of the control Escherichia coli,,,,have a capacity to covert 4-nitrophenylalanine to 4-nitrocinnamic acid,
